Experimental findings from PubChem BioAssay AID792 (PCMD, 2007) are described below.

Inconclusive results are not listed. Calls of active or inactive are those of the source. How the calls were made is not given here.

The experiment concerns the target S. cerevisiae eIF2B mutant, luciferase reporter luminescence. Put plainly: eIF2B reporter inhibitors in yeast strains, dose response, S. cerevisiae, mutant, wild-type, luminescence, growth (AID 792).
Setting [1] is: measured here: mutant yeast growth.
[2] abbreviates: S. cerevisiae wild-type, luminescence.

Usually IC50 stands for the concentration that gives 50% inhibition. `N#CC(C(=O)OC1CCCCC1)c1nc2ccccc2nc1N1CCOCC1` (centres undefined): the IC50 was > 100 µM (inactive). Also, under setting [1], the half-maximal inhibitory concentration (IC50) was over 100 µM.

With `CN1CCN(C(=O)CSc2nc(-c3ccncc3)ccc2C#N)CC1`, the IC50 was > 100 µM (inactive). The compound further displayed an IC50 under setting [1] of over 100 µM.

For the compound `COc1ccc(C2=CC(c3sccc3C)n3nnnc3N2)cc1` (centres undefined), the IC50 was > 100 µM (inactive). The same compound registered a half-inhibitory concentration (IC50) under setting [1] of over 100 µM.

As to `Cc1cc2nnc(SCC(=O)NCc3cccs3)n2c2ccccc12`, the IC50 was > 100 µM (inactive). The compound also registered an IC50 under setting [1] of over 100 µM.

In the case of `COc1cc(-c2nn3c(-c4ccccn4)nnc3s2)cc(OC)c1OC`, the IC50 is > 100 µM (inactive). In addition, under setting [1], the IC50 is over 100 µM.

Consider `CC(=O)/C=C(\C)Nc1ccc(-c2cnc(-c3ccccc3)o2)cc1`, for which the IC50 result was “inactive”. The compound also gave an IC50 under setting [2] of over 100 µM. Under setting [1], this compound returned an IC50 of over 100 µM.

As for `O=C(Cn1nnc(-c2ccc(Cl)cc2)n1)NC1CC2CCC1C2` (centres undefined), the IC50 is > 100 µM (inactive). Under setting [1], this compound showed a 50% inhibitory concentration (IC50) of over 100 µM.

With `Cc1ccc(NC(=O)c2ccc(S(=O)(=O)N3CCCCC3)cc2)cc1`, the IC50 was > 100 µM (inactive). The compound further returned an IC50 under setting [1] of over 100 µM.

Turning to `CC1(C)CC(=O)C=C(NCCCNC2CCCCC2)C1`, the IC50 was > 100 µM (inactive). The concentration for half-maximal inhibition (IC50) under setting [1] is over 100 µM.

Regarding `Nn1c(CSc2nc3ccccc3o2)nnc1CSc1nc2ccccc2o1`, the IC50 is > 100 µM (inactive). The concentration for half-maximal inhibition (IC50) under setting [1] was over 100 µM.

Turning to `Cc1cc(NC(=O)CN2CCCC(C)C2)n(-c2nc3ccccc3s2)n1` (centres undefined), the IC50 was > 100 µM (inactive). Moreover, the half-inhibitory concentration (IC50) under setting [1] was over 100 µM.

Consider `COC(=O)c1cc2occc2n1CC(=O)Nc1ccc(OC)c(OC)c1`, for which the IC50 is > 100 µM (inactive). In addition, the half-inhibitory concentration (IC50) under setting [1] was over 100 µM.

On to `CNc1nc2ccccc2n1/N=C/c1cccc(OC)c1OC`, for which the IC50 is > 100 µM (inactive). The same compound yielded a 50% inhibitory concentration (IC50) under setting [1] of over 100 µM.

Regarding `CN(C)C(=O)Oc1ccc(OC(=O)c2ccccc2)cc1`, the half-maximal inhibitory concentration (IC50) under setting [1] was over 100 µM.

Consider `Cc1ccc2nc(/C(C#N)=C\c3ccc(N4CCOCC4)o3)[nH]c2c1`, for which the IC50 was > 100 µM (inactive). Under setting [1], this compound showed an IC50 of over 100 µM.

For `COc1ccc(C2C=C(c3ccccc3)Nc3nnnn32)cc1` (centres undefined), the IC50 was > 100 µM (inactive). For the same compound, under setting [1], the concentration for half-maximal inhibition (IC50) was over 100 µM.

Take `COC(=O)c1nn2c(C(F)(F)F)cc(-c3ccc(Br)o3)nc2c1Br`: the IC50 is > 100 µM (inactive). Further, under setting [1], the IC50 is over 100 µM.

Turning to `Cc1ccc(-c2cn(S(=O)(=O)c3cccc4nsnc34)nc2N)cc1`, the IC50 is > 100 µM (inactive). This compound also returned an IC50 under setting [1] of over 100 µM.

With `CCN(CC)c1ncnc2sc(C(=O)N3CCN(c4ccc(OC)cc4)CC3)c(C)c12`, the IC50 is > 100 µM (inactive). The same compound returned a 50% inhibitory concentration (IC50) under setting [1] of over 100 µM.

For the compound `CCCCOc1ccc(OCCCC)c2c1NC1(N2)C(=O)N(C(C)=O)c2ccccc21`, the IC50 is > 100 µM (inactive). Also, the IC50 under setting [1] is over 100 µM.

For `Cn1c(=O)cc(SCC(=O)NCCCN2CCOCC2)c2ccccc21`, the IC50 was > 100 µM (inactive). Under setting [1], this compound showed a half-inhibitory concentration (IC50) of over 100 µM.

Turning to `COC(=O)Cn1c2ccc(OC)cc2c2nc3ccccc3nc21`, the IC50 was > 100 µM (inactive). Also, the half-maximal inhibitory concentration (IC50) under setting [1] is over 100 µM.

Consider `COc1ccc(C(=O)Nn2c(C)nnc2-n2nc(C)cc2C)cc1OC`, for which the IC50 was > 100 µM (inactive). Besides, the 50% inhibitory concentration (IC50) under setting [1] was over 100 µM.

`O=C(Nc1ccccn1)c1cc2ccccc2o1`: the IC50 result is “inactive”. Under setting [2], this compound registered a half-inhibitory concentration (IC50) of 4.46 µM. The compound further showed an IC50 under setting [1] of 56.3 µM.

`CC(N=c1ccccn1C(=O)Nc1cccc(C(F)(F)F)c1)c1ccco1` (centres undefined): the IC50 is > 100 µM (inactive). In addition, under setting [1], the IC50 was over 100 µM.

Consider `CCCc1nc(SCC(=O)Nc2cc(C)on2)c2ccccc2n1`, for which the IC50 was > 100 µM (inactive). Besides, the half-inhibitory concentration (IC50) under setting [1] was over 100 µM.

Take `COc1ccc(-c2nnn(CC(=O)N(Cc3ccc(F)cc3)C(C(=O)NC3CCCC3)c3ccc(F)cc3)n2)cc1` (centres undefined): the IC50 is > 100 µM (inactive). Under setting [1], the 50% inhibitory concentration (IC50) is over 100 µM.

Consider `O=C(NCc1ccc(F)cc1)c1c(O)c2cccc3c2n(c1=O)CCC3`, for which the IC50 was > 100 µM (inactive). The IC50 under setting [1] is over 100 µM.

As for `Cc1c(C(=O)Nc2nccs2)sc2nc(-c3cccs3)cc(C(F)(F)F)c12`, the IC50 was > 100 µM (inactive). This compound also registered a concentration for half-maximal inhibition (IC50) under setting [1] of over 100 µM.

For the compound `Cc1ccc(SCc2cc(=O)[nH]c(N3CCN(Cc4ccc5c(c4)OCO5)CC3)n2)cc1`, the IC50 was > 100 µM (inactive). The compound also displayed a half-maximal inhibitory concentration (IC50) under setting [1] of over 100 µM.

`Cc1ncc(CC(=O)n2cc(C(=O)c3cc(F)ccc3O)cn2)s1`: the IC50 was > 100 µM (inactive). Besides, the IC50 under setting [1] was over 100 µM.

On to `CC(=O)c1ccc(NC(=O)c2noc3c2CCCCC3)cc1`, for which the IC50 is > 100 µM (inactive). Besides, the IC50 under setting [1] is over 100 µM.

Consider `C=CCOC(=O)C1=C(C)Nc2nc3ccccc3n2C1c1ccncc1` (centres undefined), for which the IC50 was > 100 µM (inactive). Also, the IC50 under setting [1] is over 100 µM.

As for `COc1ccccc1NC(=O)CSc1nc(O)cc(=O)n1C`, the IC50 was > 100 µM (inactive). The compound also returned an IC50 under setting [1] of over 100 µM.

For the compound `CCC(C)N(C(=O)COC(=O)c1[nH]c(C)c(C(C)=O)c1C)C1CCS(=O)(=O)C1` (centres undefined), the IC50 is > 100 µM (inactive). This compound came in with a 50% inhibitory concentration (IC50) under setting [1] of over 100 µM.

On to `C=CCn1c(COc2ccccc2F)nnc1SCC(=O)Nc1cc2oc3ccccc3c2cc1OC`, for which the IC50 was > 100 µM (inactive). The same compound displayed an IC50 under setting [1] of over 100 µM.

With `Cc1cc(C)n(-c2cc(=O)n(C)c(=O)n2C)n1`, the IC50 was > 100 µM (inactive). Under setting [1], this compound came in with an IC50 of over 100 µM.

Regarding `CCn1c(CNc2nc3ccccc3n2C(C)C)nc2ccccc21`, the IC50 was > 100 µM (inactive). The IC50 under setting [1] was over 100 µM.

As for `COc1ccccc1NC(=O)Cc1csc(N)n1`, the IC50 is > 100 µM (inactive). Moreover, the IC50 under setting [1] is over 100 µM.

Regarding `CCOCCCNC(=O)C1CCN(c2cc(C)nc3c(-c4ccc(OC)c(OC)c4)c(C)nn23)CC1`, the IC50 is > 100 µM (inactive). Under setting [1], this compound had a half-maximal inhibitory concentration (IC50) of over 100 µM.

With `CC(NC(=O)CSc1nc2ccccc2c(=O)n1CCCO)c1ccccc1` (centres undefined), the IC50 is > 100 µM (inactive). Besides, the IC50 under setting [1] was over 100 µM.

For the compound `Cc1noc(C)c1C(=O)Nc1ccc2c(c1)CCC2`, the IC50 was > 100 µM (inactive). The 50% inhibitory concentration (IC50) under setting [1] was over 100 µM.

With `CC(=O)/C(C(=N)N1CCN(c2cccc(Cl)c2)CC1)=C(\C)O`, the IC50 was > 100 µM (inactive). The compound further showed a 50% inhibitory concentration (IC50) under setting [1] of over 100 µM.

As to `CC(=O)c1cccc(-n2nnnc2SCC(=O)Nc2cccc(NC(=O)c3ccco3)c2)c1`, the IC50 is > 100 µM (inactive). Also, the IC50 under setting [1] is over 100 µM.

On to `Cc1ccc(S(=O)(=O)N2CCOCC2)cc1C(=O)NCc1ccco1`, for which the IC50 is > 100 µM (inactive). Under setting [1], this compound had an IC50 of over 100 µM.

For `O=C(c1ccc2c(c1)OCO2)N(c1ccc(F)cc1)C1C=CS(=O)(=O)C1` (centres undefined), the IC50 was > 100 µM (inactive). The compound further had a 50% inhibitory concentration (IC50) under setting [1] of over 100 µM.

Regarding `Cn1c(/C(C#N)=C(\O)CN2CCN(Cc3ccccc3)CC2)nc2ccccc21`, the IC50 is > 100 µM (inactive). The half-inhibitory concentration (IC50) under setting [1] was over 100 µM.

As for `CCC(=O)N(Cc1cc(=O)[nH]c2ccccc12)c1cccc(C)c1`, the IC50 was > 100 µM (inactive). Also, the half-inhibitory concentration (IC50) under setting [1] is over 100 µM.

In the case of `CCC(=O)N1CCc2cc(S(=O)(=O)NC(C(=O)NCc3ccc(F)cc3)C(C)C)ccc21` (centres undefined), the IC50 was > 100 µM (inactive). Under setting [1], this compound showed an IC50 of over 100 µM.

Consider `CCn1ncc(Br)c1C(=O)Nc1sc2c(c1C(N)=O)CCC2`, for which the IC50 is > 100 µM (inactive). For the same compound, the IC50 under setting [1] is over 100 µM.

Take `COc1ccc2c(c1)CCc1c(C(=O)N3CC4(C)CC3CC(C)(C)C4)noc1-2` (centres undefined): the IC50 is > 100 µM (inactive). Also, under setting [1], the 50% inhibitory concentration (IC50) was over 100 µM.

Take `COC(=O)c1cccc(NC(=O)c2ccc(S(=O)(=O)N3CCN(C)CC3)cc2)c1`: the IC50 was > 100 µM (inactive). Under setting [1], this compound had an IC50 of over 100 µM.

On to `O=C(c1ccco1)N1CCN(C(=O)c2ccccc2Oc2ccccc2)CC1`, for which the IC50 was > 100 µM (inactive). Further, the IC50 under setting [1] is over 100 µM.

Regarding `COCCn1c(C)cc(C2=NNC(=Nc3ccccc3)SC2)c1C`, the IC50 was > 100 µM (inactive). Moreover, the IC50 under setting [1] is over 100 µM.

With `COC(=O)CC1Oc2ccccc2N(Cc2ccc(C)cc2)C1=O` (centres undefined), the IC50 was > 100 µM (inactive). For the same compound, the IC50 under setting [1] was over 100 µM.

As to `Cc1ccc2c(c1)N(CC(=O)NCc1cccnc1)C(=O)CO2`, the IC50 is > 100 µM (inactive). This compound also gave an IC50 under setting [1] of over 100 µM.

Consider `COc1ccc(NC(=O)C(=O)NCCN2CCN(C(=O)c3cccs3)CC2)cc1`, for which the IC50 is > 100 µM (inactive). This compound showed a concentration for half-maximal inhibition (IC50) under setting [1] of over 100 µM.

Consider `COc1ccc(OC)c(N(CC(=O)Nc2ccc(NC(C)=O)cc2)S(C)(=O)=O)c1`, for which the IC50 is > 100 µM (inactive). Under setting [1], this compound showed a 50% inhibitory concentration (IC50) of over 100 µM.

As for `CCOC(=O)C1(C)/C(=N/Nc2ccccc2)C(=O)C(=O)N1c1ccccc1` (centres undefined), the IC50 is > 100 µM (inactive). Moreover, the IC50 under setting [1] is over 100 µM.
